For 18 compounds, IC50 results are on record in patent US9834518B2, “Compounds for inhibiting cell proliferation in EGFR-driven cancers” (ARIAD Pharmaceuticals, Inc., priority 2011, dated 2017).

In assay [1] the target is EGFR bearing the L858R mution (Homo sapiens, UniProt P00533, L858R). The experiment in a line: Kinase inhibition, EGFR L858R. Format: biochemical. To be noted: 10 μM ATP; 10 pt curves, 3 μM top concentration (singlicates). As to the method: (§1) Kinase inhibitory activity of the compounds was measured against human EGFR (native sequence) and against EGFR bearing the L858R mution and the L858R/T790M double mutation (EGFR, L858R, and L858R/T790M, respectively in Table 1). Additional assays can be conducted with EGFR deletion mutants such as delE746-A750 with or without the additional T790M mutation. Assay conditions included 10 pt curves with 3 μM top concentration (singlicates) and 10 μM ATP.

For assay [2], the system named is BAF3 EGFR L858R-T790M PURO POOL. The experiment in a line: Cell proliferation (MTT), BAF3 EGFR L858R-T790M. Conditions: Ba/F3 EGFR. It counts as cell-based. As to the method: (§2) We also assessed the antiproliferative activity of compounds of Formula (I) against BaF3 cells expressing the target EGFR mutations or control (i.e., cell lines expressing wildtype EGFR). Assays were conducted using MTT.

Assay [3] addresses human EGFR (native sequence) (Homo sapiens, UniProt P00533). Put plainly: Kinase inhibition, human EGFR (native sequence). It counts as biochemical. To be noted: 10 μM ATP; 10 pt curves, 3 μM top concentration (singlicates). As to the method: as §1
The subject of the next assay is BAF3 PARENTAL
The experiment in a line: Cell proliferation (MTT), BAF3 parental. It counts as cell-based. Conditions: Mus musculus. The method, then:
as §2

Assay [4] has as its target EGFR bearing the L858R/T790M double mutation (Homo sapiens, UniProt P00533, L858R/T790M). The experiment in a line: Kinase inhibition, EGFR L858R/T790M. It counts as biochemical. Conditions: 10 μM ATP; 10 pt curves, 3 μM top concentration (singlicates). As to the method: as §1
For assay [5], the target named is BAF3 EGFR DEL T790M PURO POOL (Homo sapiens, UniProt P00533, DEL746-750/T790M, cells depend on it). Put plainly: Cell proliferation (MTT), BAF3 EGFR DEL T790M. It counts as cell-based. The method, then:
as §2

Where only a bound is given, the exact number is not on record here.

Chain of EGFR bearing the L858R/T790M double mutation (P00533 25-1210 T790M/L858R): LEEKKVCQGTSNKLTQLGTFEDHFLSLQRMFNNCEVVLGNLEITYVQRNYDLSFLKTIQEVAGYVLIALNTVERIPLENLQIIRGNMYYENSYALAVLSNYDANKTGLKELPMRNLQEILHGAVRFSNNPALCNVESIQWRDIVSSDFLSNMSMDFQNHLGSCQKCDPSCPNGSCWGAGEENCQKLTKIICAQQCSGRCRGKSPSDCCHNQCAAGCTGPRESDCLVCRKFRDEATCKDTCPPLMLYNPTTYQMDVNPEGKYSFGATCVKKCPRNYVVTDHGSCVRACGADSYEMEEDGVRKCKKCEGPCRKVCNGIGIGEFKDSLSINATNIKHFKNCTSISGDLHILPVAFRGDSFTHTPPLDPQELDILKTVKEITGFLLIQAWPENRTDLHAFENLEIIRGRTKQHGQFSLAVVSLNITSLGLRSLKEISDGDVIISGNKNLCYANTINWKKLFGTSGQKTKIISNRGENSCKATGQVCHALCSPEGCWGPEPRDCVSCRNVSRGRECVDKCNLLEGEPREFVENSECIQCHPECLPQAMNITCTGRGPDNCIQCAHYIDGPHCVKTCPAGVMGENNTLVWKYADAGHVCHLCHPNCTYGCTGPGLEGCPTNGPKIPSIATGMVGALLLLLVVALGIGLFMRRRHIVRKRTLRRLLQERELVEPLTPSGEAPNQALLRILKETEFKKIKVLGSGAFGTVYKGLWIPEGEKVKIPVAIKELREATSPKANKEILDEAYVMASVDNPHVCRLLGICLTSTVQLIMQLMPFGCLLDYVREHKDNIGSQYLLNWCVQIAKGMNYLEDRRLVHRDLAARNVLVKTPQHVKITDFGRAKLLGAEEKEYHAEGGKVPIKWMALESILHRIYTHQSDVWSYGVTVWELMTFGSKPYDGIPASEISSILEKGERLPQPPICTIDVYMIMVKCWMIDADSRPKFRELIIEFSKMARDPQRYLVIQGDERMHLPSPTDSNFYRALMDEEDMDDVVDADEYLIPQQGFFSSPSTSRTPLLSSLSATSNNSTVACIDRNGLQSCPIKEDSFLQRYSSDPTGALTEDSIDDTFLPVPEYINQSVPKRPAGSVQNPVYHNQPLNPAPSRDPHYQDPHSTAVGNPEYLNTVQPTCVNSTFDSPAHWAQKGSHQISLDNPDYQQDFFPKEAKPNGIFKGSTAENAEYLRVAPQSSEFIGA
Chain of EGFR bearing the L858R mution (P00533 25-1210 L858R): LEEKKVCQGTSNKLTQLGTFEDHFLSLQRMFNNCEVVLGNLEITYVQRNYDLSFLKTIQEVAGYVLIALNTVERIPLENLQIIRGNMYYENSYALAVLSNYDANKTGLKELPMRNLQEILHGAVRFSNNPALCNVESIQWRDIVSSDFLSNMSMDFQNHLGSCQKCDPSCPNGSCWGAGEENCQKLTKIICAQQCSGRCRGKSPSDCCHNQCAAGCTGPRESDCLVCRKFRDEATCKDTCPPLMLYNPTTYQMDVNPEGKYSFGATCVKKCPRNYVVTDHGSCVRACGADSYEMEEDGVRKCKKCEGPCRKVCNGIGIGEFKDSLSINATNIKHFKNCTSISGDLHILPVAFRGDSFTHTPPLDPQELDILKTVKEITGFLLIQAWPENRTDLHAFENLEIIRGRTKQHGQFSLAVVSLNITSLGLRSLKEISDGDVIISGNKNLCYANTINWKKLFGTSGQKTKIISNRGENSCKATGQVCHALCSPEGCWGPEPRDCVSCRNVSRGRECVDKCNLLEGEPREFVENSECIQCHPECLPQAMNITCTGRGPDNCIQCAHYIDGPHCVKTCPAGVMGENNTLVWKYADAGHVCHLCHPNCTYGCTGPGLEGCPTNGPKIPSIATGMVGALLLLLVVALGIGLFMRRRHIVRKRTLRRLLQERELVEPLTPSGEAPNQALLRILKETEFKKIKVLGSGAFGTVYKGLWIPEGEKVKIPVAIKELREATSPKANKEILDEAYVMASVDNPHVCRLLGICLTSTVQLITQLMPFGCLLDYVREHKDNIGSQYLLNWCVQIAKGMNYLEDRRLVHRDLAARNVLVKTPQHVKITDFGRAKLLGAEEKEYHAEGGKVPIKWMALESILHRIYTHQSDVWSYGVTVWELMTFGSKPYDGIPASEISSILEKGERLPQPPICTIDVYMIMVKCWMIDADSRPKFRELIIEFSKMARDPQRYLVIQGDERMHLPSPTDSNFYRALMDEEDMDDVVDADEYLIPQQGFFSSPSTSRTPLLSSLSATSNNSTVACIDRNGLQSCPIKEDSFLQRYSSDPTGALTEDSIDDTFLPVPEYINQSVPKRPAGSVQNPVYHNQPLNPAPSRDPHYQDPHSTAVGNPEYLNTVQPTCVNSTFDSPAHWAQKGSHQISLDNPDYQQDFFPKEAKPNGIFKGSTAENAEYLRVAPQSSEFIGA
Chain of human EGFR (native sequence) (P00533 25-1210): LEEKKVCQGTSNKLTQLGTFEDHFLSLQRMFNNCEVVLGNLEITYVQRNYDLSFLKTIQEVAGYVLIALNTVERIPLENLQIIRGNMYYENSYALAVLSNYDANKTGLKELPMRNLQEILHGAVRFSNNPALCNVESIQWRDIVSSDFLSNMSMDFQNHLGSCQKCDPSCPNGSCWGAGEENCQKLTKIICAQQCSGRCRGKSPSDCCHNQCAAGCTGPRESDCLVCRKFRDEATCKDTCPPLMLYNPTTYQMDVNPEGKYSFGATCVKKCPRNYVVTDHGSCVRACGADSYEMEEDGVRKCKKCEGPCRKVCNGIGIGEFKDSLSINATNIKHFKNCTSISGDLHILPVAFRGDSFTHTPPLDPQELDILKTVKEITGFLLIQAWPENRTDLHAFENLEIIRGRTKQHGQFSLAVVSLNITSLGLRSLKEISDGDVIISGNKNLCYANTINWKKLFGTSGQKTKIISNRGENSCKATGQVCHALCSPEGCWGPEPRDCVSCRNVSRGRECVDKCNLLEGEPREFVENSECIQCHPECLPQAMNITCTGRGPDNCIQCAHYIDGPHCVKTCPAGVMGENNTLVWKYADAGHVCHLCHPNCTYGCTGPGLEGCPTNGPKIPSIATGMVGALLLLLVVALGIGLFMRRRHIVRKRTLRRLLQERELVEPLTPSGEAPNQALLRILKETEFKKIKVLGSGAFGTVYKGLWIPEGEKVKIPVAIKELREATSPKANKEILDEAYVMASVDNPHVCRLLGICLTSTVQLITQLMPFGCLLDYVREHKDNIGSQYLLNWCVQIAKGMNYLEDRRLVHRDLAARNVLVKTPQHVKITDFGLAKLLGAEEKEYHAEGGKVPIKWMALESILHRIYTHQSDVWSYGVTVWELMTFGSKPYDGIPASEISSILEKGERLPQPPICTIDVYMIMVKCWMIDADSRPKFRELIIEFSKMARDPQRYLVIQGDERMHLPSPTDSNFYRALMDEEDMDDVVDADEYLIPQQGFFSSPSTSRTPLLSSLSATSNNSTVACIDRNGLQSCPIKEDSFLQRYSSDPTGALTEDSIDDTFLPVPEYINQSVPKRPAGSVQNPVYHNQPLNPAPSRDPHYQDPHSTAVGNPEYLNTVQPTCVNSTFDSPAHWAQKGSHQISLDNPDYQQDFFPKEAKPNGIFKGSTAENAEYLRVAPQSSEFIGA
Chain of BAF3 EGFR DEL T790M PURO POOL (P00533 with tags, fused parts or gaps DEL746-750/T790M): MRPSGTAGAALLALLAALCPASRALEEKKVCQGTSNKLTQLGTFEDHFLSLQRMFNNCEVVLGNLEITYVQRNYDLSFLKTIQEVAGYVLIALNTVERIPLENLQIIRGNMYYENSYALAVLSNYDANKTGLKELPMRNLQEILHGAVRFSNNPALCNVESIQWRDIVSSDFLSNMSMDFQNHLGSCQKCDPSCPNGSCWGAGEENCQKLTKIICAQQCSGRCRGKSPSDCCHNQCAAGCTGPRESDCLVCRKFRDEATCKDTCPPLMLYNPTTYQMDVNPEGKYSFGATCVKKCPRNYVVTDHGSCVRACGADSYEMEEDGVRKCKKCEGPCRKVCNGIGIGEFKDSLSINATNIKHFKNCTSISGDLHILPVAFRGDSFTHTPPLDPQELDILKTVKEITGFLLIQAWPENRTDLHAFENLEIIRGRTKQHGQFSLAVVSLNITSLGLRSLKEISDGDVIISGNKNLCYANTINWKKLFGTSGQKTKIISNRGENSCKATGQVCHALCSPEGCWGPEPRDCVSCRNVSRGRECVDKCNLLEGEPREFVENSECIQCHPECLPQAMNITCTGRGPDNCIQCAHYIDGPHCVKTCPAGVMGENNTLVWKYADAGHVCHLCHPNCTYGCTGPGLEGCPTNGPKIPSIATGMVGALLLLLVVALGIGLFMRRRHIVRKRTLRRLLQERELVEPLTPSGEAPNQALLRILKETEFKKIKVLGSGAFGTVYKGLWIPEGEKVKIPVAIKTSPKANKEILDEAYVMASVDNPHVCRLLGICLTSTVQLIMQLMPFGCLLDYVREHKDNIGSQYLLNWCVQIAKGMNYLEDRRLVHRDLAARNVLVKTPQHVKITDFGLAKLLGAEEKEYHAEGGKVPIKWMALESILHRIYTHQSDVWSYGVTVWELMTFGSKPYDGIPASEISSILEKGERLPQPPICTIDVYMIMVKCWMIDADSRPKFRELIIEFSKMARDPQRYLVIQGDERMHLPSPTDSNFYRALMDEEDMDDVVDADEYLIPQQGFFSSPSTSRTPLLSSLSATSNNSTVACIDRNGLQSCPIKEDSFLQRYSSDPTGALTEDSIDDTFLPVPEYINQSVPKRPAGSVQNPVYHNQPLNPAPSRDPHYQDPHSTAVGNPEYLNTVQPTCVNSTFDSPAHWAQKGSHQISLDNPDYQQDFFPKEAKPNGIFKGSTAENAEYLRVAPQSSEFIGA

The IC50 is the concentration at which inhibition is half-maximal. Consider `CC#CC(=O)Nc1ccc(OC)c(Nc2ncc(Cl)c(Nc3ccccc3P(C)(C)=O)n2)c1` [Example 6b, N-(3-((5-chloro-4-((2-(dimethylphosphoryl)phenyl)amino)pyrimidin-2-yl)amino)-4-methoxyphenyl)but-2-ynamide], for which the IC50 in assay [1] was 51 to 100 nM; in assay [2], 51 to 100 nM; in assay [3] it was at least 250 nM; in the assay on BAF3 PARENTAL it was at least 250 nM; in assay [4] it was at least 250 nM; in assay [5], below 51 nM.
For `C=CC(=O)Nc1ccc(OC)c(Nc2ncc(C)c(Nc3ccccc3P(C)(C)=O)n2)c1` [Example 64, N-(3-((4-((2-(dimethylphosphoryl)phenyl)amino)-5-methylpyrimidin-2-yl)amino)-4-methoxyphenyl)acrylamide], the IC50 in assay [1] is below 51 nM; in assay [2] it was below 51 nM; in assay [3], below 51 nM; with BAF3 PARENTAL, at least 250 nM; in assay [4], below 51 nM; in assay [5] it was below 51 nM.
Take `C=CC(=O)Nc1ccc(OC)c(Nc2ncc(F)c(Nc3ccccc3P(C)(C)=O)n2)c1` [Example 11, N-(3-((4-((2-(dimethylphosphoryl)phenyl)amino)-5-fluoropyrimidin-2-yl)amino)-4-methoxyphenyl)acrylamide]: the IC50 is below 51 nM in assay [1]; 101 to 250 nM in assay [2]; 101 to 250 nM in assay [3]; at least 250 nM with BAF3 PARENTAL; below 51 nM in assay [4]; 51 to 100 nM in assay [5].
For the compound `C=CC(=O)Nc1cc(Nc2ncc(Cl)c(Nc3ccc(F)cc3P(C)(C)=O)n2)c(OC)cc1F` [Example 55, N-(5-((5-chloro-4-((2-(dimethylphosphoryl)-4-fluorophenyl)amino)pyrimidin-2-yl)amino)-2-fluoro-4-methoxyphenyl)acrylamide], the IC50 in assay [1] is below 51 nM; in assay [2], below 51 nM; in assay [3], 51 to 100 nM; in the assay on BAF3 PARENTAL, at least 250 nM; in assay [4] it was below 51 nM; in assay [5] it was below 51 nM.
Take `C=CC(=O)Nc1ccc(OCC)c(Nc2ncc(Cl)c(Nc3ccccc3P(C)(C)=O)n2)c1` [Example 47, N-(3-((5-chloro-4-((2-(dimethylphosphoryl)phenyl)amino)pyrimidin-2-yl)amino)-4-ethoxyphenyl)acrylamide]: the IC50 in assay [1] was below 51 nM; in assay [2] it was below 51 nM; in assay [3], below 51 nM; with BAF3 PARENTAL, at least 250 nM; in assay [4], below 51 nM; in assay [5], below 51 nM.
Take `C=CC(=O)Nc1cc(Nc2ncc(Cl)c(Nc3ccccc3P(C)(C)=O)n2)c(OC)cc1OCCN(C)CCOC` [Example 39, N-(5-((5-chloro-4-((2-(dimethylphosphoryl)phenyl)amino)pyrimidin-2-yl)amino)-4-methoxy-2-(2-((2-methoxyethyl)(methyl)amino)ethoxy)phenyl)acrylamide]: the IC50 in assay [1] is below 51 nM; in assay [2], below 51 nM; in assay [3] it was below 51 nM; in the assay with BAF3 PARENTAL, at least 250 nM; in assay [4], below 51 nM; in assay [5], below 51 nM.
Regarding `C=CC(=O)N(CCCN(C)C)c1ccc(OC)c(Nc2ncc(Cl)c(Nc3ccccc3P(C)(C)=O)n2)c1` [Example 21, N-(3-((5-chloro-4-((2-(dimethylphosphoryl)phenyl)amino)pyrimidin-2-yl)amino)-4-methoxyphenyl)-N-(3-(dimethylamino)propyl)acrylamide], the IC50 is 101 to 250 nM in assay [1]; at least 250 nM in assay [2]; at least 250 nM in assay [3]; at least 250 nM in the assay with BAF3 PARENTAL; 51 to 100 nM in assay [4]; 101 to 250 nM in assay [5].
Consider `C=CC(=O)Nc1ccc(OC)c(Nc2ncc(Cl)c(Nc3ccccc3P(C)(C)=O)n2)c1` [Example 1, N-(3-((5-chloro-4-((2-(dimethylphosphoryl)phenyl)amino)pyrimidin-2-yl)amino)-4-methoxyphenyl)acrylamide], for which the IC50 in assay [1] is below 51 nM; in assay [2], below 51 nM; in assay [3] it was 51 to 100 nM; in the assay with BAF3 PARENTAL, at least 250 nM; in assay [4], below 51 nM; in assay [5], below 51 nM.
For the compound `C=CC(=O)Nc1cc(Nc2ncc(Cl)c(Nc3cccc(C)c3P(=O)(CC)CC)n2)c(OC)cc1F` [Example 49, N-(5-((5-chloro-4-((2-(diethylphosphoryl)-3-methylphenyl)amino)pyrimidin-2-yl)amino)-2-fluoro-4-methoxyphenyl)acrylamide], the IC50 in assay [1] was below 51 nM; in assay [2] it was below 51 nM; in assay [3], below 51 nM; with BAF3 PARENTAL, at least 250 nM; in assay [4], below 51 nM; in assay [5], below 51 nM.
In the case of `C=CC(=O)Nc1cc(Nc2ncc(Cl)c(Nc3ccccc3P(C)(C)=O)n2)c(OC)cc1F` [Example 22], the IC50 in assay [1] was below 51 nM; in assay [2], below 51 nM; in assay [3], below 51 nM; in the assay on BAF3 PARENTAL, at least 250 nM; in assay [4], below 51 nM; in assay [5], below 51 nM.
Take `COc1ccc(NC(=O)C2(C)CO2)cc1Nc1ncc(Cl)c(Nc2ccccc2P(C)(C)=O)n1` (stereo not drawn) [Example 10, N-(3-((5-chloro-4-((2-(dimethylphosphoryl)phenyl)amino)pyrimidin-2-yl)amino)-4-methoxyphenyl)-2-methyloxirane-2-carboxamide]: the IC50 is below 51 nM in assay [1]; below 51 nM in assay [2]; below 51 nM in assay [3]; at least 250 nM with BAF3 PARENTAL; below 51 nM in assay [4]; below 51 nM in assay [5].
Turning to `C=CP(C)(=O)Cc1ccc(OC)c(Nc2ncc(Cl)c(Nc3ccccc3P(C)(C)=O)n2)c1` (stereo not drawn) [Example 60, (2-((5-chloro-2-((2-methoxy-5-((methyl(vinyl)phosphoryl)methyl)phenyl)amino)pyrimidin-4-yl)amino)phenyl)dimethylphosphine oxide], the IC50 (in assay [1]; in assay [2]; in assay [3]; with BAF3 PARENTAL; in assay [4]; in assay [5]) was at least 250 nM in each case.
For the compound `C=CC(=O)Nc1cc(Nc2ncc(Cl)c(Nc3ccccc3P(C)(C)=O)n2)c(OC)cc1N1CCOCC1` [Example 32, N-(5-((5-chloro-4-((2-(dimethylphosphoryl)phenyl)amino)pyrimidin-2-yl)amino)-4-methoxy-2-morpholinophenyl)acrylamide], the 50% inhibitory concentration (IC50) was below 51 nM in assay [1]; 51 to 100 nM in assay [2]; at least 250 nM in assay [3]; at least 250 nM with BAF3 PARENTAL; below 51 nM in assay [4]; below 51 nM in assay [5].
Consider `COc1ccc(NC(=O)C2CO2)cc1Nc1ncc(Cl)c(Nc2ccccc2P(C)(C)=O)n1` (stereo not drawn) [Example 58, N-(3-((5-chloro-4-((2-(dimethylphosphoryl)phenyl)amino)pyrimidin-2-yl)amino)-4-methoxyphenyl)oxirane-2-carboxamide], for which the IC50 in assay [1] was below 51 nM; in assay [2] it was below 51 nM; in assay [3] it was below 51 nM; in the assay on BAF3 PARENTAL, at least 250 nM; in assay [4], below 51 nM; in assay [5], below 51 nM.
With `C=CC(=O)N(C(=O)C=C)c1ccc(OC)c(Nc2ncc(Cl)c(Nc3ccccc3P(C)(C)=O)n2)c1` [Example 26, N-acryloyl-N-(3-((5-chloro-4-((2-(dimethylphosphoryl)phenyl)amino)pyrimidin-2-yl)amino)-4-methoxyphenyl)acrylamide], the 50% inhibitory concentration (IC50) in assay [1] is 101 to 250 nM; in assay [2] it was 51 to 100 nM; in assay [3] it was at least 250 nM; in the assay on BAF3 PARENTAL it was at least 250 nM; in assay [4], 101 to 250 nM; in assay [5], below 51 nM.
On to `C=CC(=O)Nc1cc(Nc2ncc(Cl)c(Nc3ccccc3P(C)(C)=O)n2)c(OC)cc1O[C@H](COC)CN(CC)CC` (stereo in doubt) [Example 30, rac-(R)—N-(5-((5-chloro-4-((2-(dimethylphosphoryl)phenyl)amino)pyrimidin-2-yl)amino)-2-((1-(diethylamino)-3-methoxypropan-2-yl)oxy)-4-methoxyphenyl)acrylamide], for which the IC50 was below 51 nM in assay [1]; below 51 nM in assay [2]; below 51 nM in assay [3]; at least 250 nM in the assay with BAF3 PARENTAL; below 51 nM in assay [4]; below 51 nM in assay [5].
On to `C=CC(=O)Nc1cc(Nc2ncc(Cl)c(Nc3ccccc3P(=O)(CC)CC)n2)c(OC)cc1OCCN(C)C` [Example 52, N-(5-((5-chloro-4-((2-(diethylphosphoryl)phenyl)amino)pyrimidin-2-yl)amino)-2-(2-(dimethylamino)ethoxy)-4-methoxyphenyl)acrylamide], for which the IC50 in assay [1] was below 51 nM; in assay [2], below 51 nM; in assay [3], below 51 nM; in the assay on BAF3 PARENTAL, at least 250 nM; in assay [4], below 51 nM; in assay [5] it was below 51 nM.
With `C=CC(=O)Nc1cc(Nc2ncc(Cl)c(Nc3ccccc3P(C)(C)=O)n2)c(OC)cc1OC(COC)CN(CC)CC` (stereo not drawn) [Example 27], the IC50 in assay [1] is below 51 nM; in assay [2], below 51 nM; in assay [3] it was below 51 nM; in the assay on BAF3 PARENTAL it was at least 250 nM; in assay [4] it was below 51 nM; in assay [5], below 51 nM.
